According to article PMC6328172, “5-HT2 receptor binding, functional activity and selectivity in N-benzyltryptamines” (PLoS ONE, 2019):
Like-named read-outs stand apart in the source and are kept apart here.

What was measured:
human 5-HT2C receptor [1] = target: T1, human 5-HT2C receptor (Homo sapiens, UniProt P28335); experiment: Competition binding to the human 5-HT2C receptor ([3H]mesulergine, HeLa-5-HT2C membranes); conditions: for Selectivity 5-HT2C/2A (binding, in parentheses): from Ki values, Table 1; for Ki: human receptor, [3H]mesulergine displacement, no unit in the table, nM, read-out: 5-HT2C Ki (in parentheses) (converted)
T1 construct: expressed in transfected cells; host or cells: HeLa (HeLa-5-HT2C cell line)
T1 sequence (P28335 33-458): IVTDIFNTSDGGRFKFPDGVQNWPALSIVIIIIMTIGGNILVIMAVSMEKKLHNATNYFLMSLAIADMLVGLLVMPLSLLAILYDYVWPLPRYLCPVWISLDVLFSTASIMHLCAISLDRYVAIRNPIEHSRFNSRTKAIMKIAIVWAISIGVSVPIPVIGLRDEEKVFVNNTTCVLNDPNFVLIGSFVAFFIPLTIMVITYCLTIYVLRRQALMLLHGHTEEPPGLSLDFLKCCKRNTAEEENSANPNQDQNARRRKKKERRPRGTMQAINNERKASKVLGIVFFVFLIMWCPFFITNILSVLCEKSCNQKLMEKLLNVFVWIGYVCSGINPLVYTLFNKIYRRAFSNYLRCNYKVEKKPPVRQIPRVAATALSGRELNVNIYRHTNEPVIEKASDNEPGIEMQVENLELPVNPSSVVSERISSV

human 5-HT2A receptor [2] = target: T2, human 5-HT2A receptor (Homo sapiens, UniProt P28223); experiment: Ca2+ mobilization in CHO h5-HT2A cells; type: cell-based; conditions: for Selectivity 5-HT2A/2C (functional): from EC50 values, Table 2; for Emax: relative efficacy, % of response to 5-HT
T2 construct: expressed in transfected cells; host or cells: CHO (CHO-5-HT2A cell line)
T2 sequence (P28223 whole entry): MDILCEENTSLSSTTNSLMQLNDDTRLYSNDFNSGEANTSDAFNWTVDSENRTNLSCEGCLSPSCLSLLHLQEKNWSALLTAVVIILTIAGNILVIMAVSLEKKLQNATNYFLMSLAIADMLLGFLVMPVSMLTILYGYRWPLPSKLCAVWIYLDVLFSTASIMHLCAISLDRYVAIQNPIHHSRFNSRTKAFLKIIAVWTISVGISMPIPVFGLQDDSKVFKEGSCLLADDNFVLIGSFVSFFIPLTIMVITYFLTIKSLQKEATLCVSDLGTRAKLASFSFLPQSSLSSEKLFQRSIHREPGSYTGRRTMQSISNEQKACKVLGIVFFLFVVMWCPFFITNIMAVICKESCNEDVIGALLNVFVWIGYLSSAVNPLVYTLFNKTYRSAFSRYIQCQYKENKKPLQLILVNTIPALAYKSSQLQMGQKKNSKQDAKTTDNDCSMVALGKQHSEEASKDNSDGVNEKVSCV

human 5-HT2B receptor = human 5-HT2B receptor (Homo sapiens, UniProt P41595); experiment: Competition binding to the human 5-HT2B receptor ([3H]LSD, CHO-5-HT2B membranes)
Sequence of human 5-HT2B receptor (P41595 whole entry): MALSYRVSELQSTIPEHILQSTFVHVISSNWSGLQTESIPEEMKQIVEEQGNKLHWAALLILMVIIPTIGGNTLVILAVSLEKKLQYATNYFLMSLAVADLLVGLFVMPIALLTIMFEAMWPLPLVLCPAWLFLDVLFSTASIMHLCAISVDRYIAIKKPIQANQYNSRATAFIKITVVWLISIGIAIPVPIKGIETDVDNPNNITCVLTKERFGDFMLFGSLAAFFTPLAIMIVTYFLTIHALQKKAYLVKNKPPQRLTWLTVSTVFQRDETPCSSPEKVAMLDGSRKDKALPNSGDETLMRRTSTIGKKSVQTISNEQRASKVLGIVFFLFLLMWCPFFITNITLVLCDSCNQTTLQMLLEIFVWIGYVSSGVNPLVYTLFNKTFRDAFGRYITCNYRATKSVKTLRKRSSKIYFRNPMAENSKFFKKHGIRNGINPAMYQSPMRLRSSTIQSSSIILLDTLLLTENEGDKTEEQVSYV

human 5-HT2C receptor [3] = target: T1, human 5-HT2C receptor; experiment: Ca2+ mobilization in HeLa h5-HT2C cells; type: cell-based; conditions: for EC50: no unit in the table, nM; for Emax: HeLa, read-out: 5-HT2C % Emax; for Selectivity 5-HT2C/2A (functional, in parentheses): from EC50 values, Table 2
human 5-HT2A receptor [4] = target: T2, human 5-HT2A receptor; experiment: Competition binding to the human 5-HT2A receptor ([3H]ketanserin, CHO-5-HT2A membranes); conditions: for Selectivity 5-HT2A/2C (binding): from Ki values, Table 1; for Ki: human receptor, [3H]ketanserin displacement
[5] = Ca2+ mobilization, no unit in the table, nM, read-out: 5-HT2A EC50 (in parentheses) (converted)
[6] = Ca2+ mobilization, read-out: 5-HT2C EC50 (in parentheses) (converted)
[7] = no unit in the table, nM, read-out: 5-HT2A Ki (in parentheses) (converted)
[8] = Ca2+ mobilization, pEC50 ± SEM, read-out: 5-HT2A pEC50 (converted)

SMILES | Selectivity 5-HT2C/2A (binding, in parentheses) (human 5-HT2C receptor [1]) | Ki (human 5-HT2C receptor [1]) | EC50 (human 5-HT2A receptor [2]; [5]) | Selectivity 5-HT2A/2C (functional) (human 5-HT2A receptor [2]) | Emax (human 5-HT2A receptor [2]) | Ki (human 5-HT2B receptor) | EC50 (human 5-HT2C receptor [3]; [6]) | Emax (human 5-HT2C receptor [3]) | Selectivity 5-HT2C/2A (functional, in parentheses) (human 5-HT2C receptor [3]) | Selectivity 5-HT2A/2C (binding) (human 5-HT2A receptor [4]) | Ki (human 5-HT2A receptor [4]; [7]) | functional activity at h5-HT2A receptor (in words) (human 5-HT2A receptor [2]; Ca2+ mobilization) | 5-HT2A pEC50 (human 5-HT2A receptor [2]; Ca2+ mobilization, pEC50 ± SEM) | EC50 (human 5-HT2A receptor [2]; [8]) | EC50 (human 5-HT2C receptor [3]; 5-HT2C EC50 (in parentheses), Ca2+ mobilization) | times less potent than lorcaserin (human 5-HT2C receptor [3]; 5-HT2C functional potency) | functional activity at h5-HT2C receptor (in words) (human 5-HT2C receptor [3]; Ca2+ mobilization) | Ki (human 5-HT2A receptor [4]; read-out: 5-HT2A pKi ± S.E.M. (converted))
CCOc1ccc(CNCCc2c[nH]c3ccccc23)cc1 [Compound 15, N-(4-Ethoxybenzyl)-[2-(1H-indol-3-yl)ethyl]amine] | 0.36 | 741 nM | 363 nM | 0.032 | 36.7 ± 6.13% | 0.269 µM | 11.7 nM | 93.2 ± 3.26% | 30.9 | 2.66 | 275 nM |  |  |  |  |  |  | 
Clc1ccc(CNCCc2c[nH]c3ccccc23)cc1 [Compound 16, N-(4-Chlorobenzyl)-[2-(1H-indol-3-yl)ethyl]amine] | 0.73 | 955 nM | 58.9 nM | 0.85 | 80 ± 4.54% | 0.224 µM | 50.1 nM | 98.3 ± 4.18% | 1.17 | 1.37 | 708 nM |  |  |  |  |  |  | 
Brc1ccc(CNCCc2c[nH]c3ccccc23)cc1 [Compound 17, N-(4-Bromobenzyl)-[2-(1H-indol-3-yl)ethyl]amine] | 0.92 | 1070 nM |  |  |  | 0.263 µM | 6760 nM | 110 ± 4.3% |  | 1.09 | 1000 nM | too low for quantification |  |  |  |  |  | 
COc1cccc(CNCCc2c[nH]c3ccccc23)c1O [Compound 19, N-(2-Hydroxy-3-methoxybenzyl)-[2-(1H-indol-3-yl)ethyl]amine] | 1.72 | 16.6 nM | 49 nM | 1.91 | 26.2 ± 2.34% | 0.0132 µM | 93.3 nM | 107 ± 6.91% | 0.52 | 0.58 | 26.3 nM |  |  |  |  |  |  | 
Oc1c(Br)cccc1CNCCc1c[nH]c2ccccc12 [Compound 21, N-(3-Bromo-2-hydroxybenzyl)-[2-(1H-indol-3-yl)ethyl]amine] | 0.10 | 138 nM | 15800 nM | 0.0017 | 40.4 ± 6.23% | 0.0155 µM | 27.5 nM | 98.8 ± 2.83% | 575 | 9.8 | 14.1 nM | extremely weak h5-HT2A partial agonist | 4.80 | 15800 nM | 27 nM | about 3 times | full agonist | 
Oc1c(F)cccc1CNCCc1c[nH]c2ccccc12 [Compound 22, N-(3-Fluoro-2-hydroxybenzyl)-[2-(1H-indol-3-yl)ethyl]amine] | 1.22 | 178 nM | 162 nM | 0.105 | 53.6 ± 4.49% | 0.129 µM | 17 nM | 104 ± 4.96% | 9.55 | 0.82 | 209 nM |  |  |  |  |  |  | 
Cc1ccc(O)c(CNCCc2c[nH]c3ccccc23)c1 [Compound 23, N-(2-Hydroxy-5-methylbenzyl)-[2-(1H-indol-3-yl)ethyl]amine] | 2.77 | 269 nM | 110 nM | 0.91 | 43.6 ± 0.9% | 0.155 µM | 100 nM | 89.4 ± 3.86% | 1.10 | 0.36 | 741 nM |  |  |  |  |  |  | 
Oc1ccc(F)cc1CNCCc1c[nH]c2ccccc12 [Compound 24, N-(5-Fluoro-2-hydroxybenzyl)-[2-(1H-indol-3-yl)ethyl]amine] | 7.15 | 105 nM | 75.9 nM | 0.35 | 71.6 ± 1.95% | 0.0776 µM | 26.3 nM | 105 ± 2.19% | 2.88 | 0.14 | 759 nM |  |  |  |  |  |  | 794 nM
COc1ccc(F)cc1CNCCc1c[nH]c2ccccc12 [Compound 25, N-(5-Fluoro-2-methoxybenzyl)-[2-(1H-indol-3-yl)ethyl]amine] | 2.40 | 151 nM | 60.3 nM | 0.87 | 58 ± 1.95% | 0.0955 µM | 52.5 nM | 110 ± 2.19% | 1.15 | 0.42 | 363 nM |  |  |  |  |  |  | 
COc1ccc(Br)cc1CNCCc1c[nH]c2ccccc12 [Compound 27, N-(5-Bromo-2-methoxybenzyl)-[2-(1H-indol-3-yl)ethyl]amine] | 8.22 | 135 nM | 17800 nM | 0.015 | 69 ± 3.51% | 0.0912 µM | 263 nM | 111 ± 4.63% | 67.6 | 0.12 | 1120 nM |  |  | 17800 nM |  |  |  | 
COc1ccc(Cl)cc1CNCCc1c[nH]c2ccccc12 [Compound 28, N-(5-Chloro-2-methoxybenzyl)-[2-(1H-indol-3-yl)ethyl]amine] | 0.74 | 1320 nM | 8910 nM | 0.027 | 69.2 ± 2.67% | 0.794 µM | 240 nM | 110 ± 3.35% | 37.2 | 1.35 | 977 nM |  |  | 8910 nM |  |  |  | 
COc1ccc(OC)c(CNCCc2c[nH]c3ccccc23)c1 [Compound 29, N-(2,5-Dimethoxybenzyl)-[2-(1H-indol-3-yl)ethyl]amine] | 3.85 | 87.1 nM | 3470 nM | 0.038 | 39 ± 0.67% | 0.0575 µM | 132 nM | 118 ± 4.45% | 26.3 | 0.26 | 331 nM |  |  |  |  |  |  | 
Oc1cc(Br)ccc1CNCCc1c[nH]c2ccccc12 [Compound 31, N-(4-Bromo-2-hydroxybenzyl)-[2-(1H-indol-3-yl)ethyl]amine] | 2.63 | 603 nM | 24500 nM | 0.033 | 62.5 ± 10.8% | 0.11 µM | 813 nM | 74.8 ± 2.6% | 30.2 | 0.38 | 1550 nM |  |  |  |  |  |  | 
Oc1cccc(Br)c1CNCCc1c[nH]c2ccccc12 [Compound 33, N-(6-Bromo-2-hydroxybenzyl)-[2-(1H-indol-3-yl)ethyl]amine] | 15 | 112 nM | 5890 nM | 0.13 | 34.4 ± 1.37% | 0.0692 µM | 794 nM | 104 ± 2.91% | 7.41 | 0.067 | 1660 nM |  |  |  |  |  |  | 
Oc1cccc(F)c1CNCCc1c[nH]c2ccccc12 [Compound 34, N-(6-Fluoro-2-hydroxybenzyl)-[2-(1H-indol-3-yl)ethyl]amine] |  | 155 nM | 39.8 nM | 0.47 | 49.3 ± 3.23% | 0.115 µM | 18.6 nM | 91.7 ± 6.6% | 2.13 |  | 229 nM |  |  |  |  |  |  | 
COc1ccc(CNCCc2c[nH]c3ccccc23)cc1OC [Compound 36, N-(3,4-Dimethoxybenzyl)-[2-(1H-indol-3-yl)ethyl]amine] | 1.09 | 1200 nM | 2240 nM | 0.026 | 50.5 ± 8.27% | 0.288 µM | 57.5 nM | 100 ± 2.85% | 38.9 | 0.92 | 1290 nM |  |  |  |  |  |  | 
